{"source": "patent US12012637B2", "about": "(University of South Florida, priority 2017, dated 2024)", "key": {"LIN28B [1]": {"test_system": "LIN28B", "test": "Dual immunofluorescence staining of LIN28B and GLUT1 in IH sections from propranolol-treated patients", "type": "in vivo, human", "procedure": "Paraffin embedded infantile hemangioma and placenta sections (10 μm) were immunostained with primary antibodies against LIN28B 40 ug/ml (Abcam Cat #ab71415, RRID:AB_2135050) and GLUT1 3.4 ug/ml (Abcam Cat #ab40084, RRID:AB_2190927) overnight at 4° C. Sections were washed 3 times in PBS and incubated with 4 ug/ml secondary antibody Alexa Fluor 488 (Life Technologies Cat #a21202, RRID:AB_141607) for GLUT1 and alexa fluor cy3 (Life Technologies Cat #a10520, RRID:AB_2534029) for LIN28B for 30 minutes at room temperature. The sections were then washed with PBS and mounted with ProLong Diamond Antifade Mountant with DAPI, (Invitogen). Confocal images were obtained using an Olympus FV 1200 instrument. Immunofluorescence intensities were measured using ImageJ software as described^33. Fluorescence intensities were normalized to background intensities of secondary antibody only controls."}, "LIN28B [2]": {"test_system": "LIN28B", "test": "Immunoblot of LIN28B in propranolol-treated iPSCs", "type": "cell-based, human", "settings": "50 μM, 72 h, vs vehicle control", "procedure": "(§1) Briefly, freshly dissected IH tissues were digested in 0.2% collagenase A (Roche Diagnostics, Indianapolis, IN). […] HemSCs were maintained in EBM-2 SingleQuot media Supplemented with 20% FBS.\nImmunoblot analyses were performed as previously described^34 using 24 ng/ml antibodies against GAPDH (Cell Signaling Technology Cat #2118L RRID:AB_561053), […] antibodies against LIN28B (Abcam Cat #ab71415 RRID:AB_2135050) followed by IRDye 680 donkey anti-rabbit IGG secondary antibodies (0.2 μg/ml, LI-COR, 926-68073 RRID: AB_10954442). Immunoblots were imaged using the Odyssey Infrared Imaging System (LI-COR) and quantified using Image Studio software (LI-COR)."}, "iPSCs [3]": {"test_system": "iPSCs", "test": "qRT-PCR analysis of miRNAs and genes in propranolol-treated iPSCs", "type": "cell-based, human", "settings": "50 μM"}, "iPSCs [4]": {"test_system": "iPSCs", "test": "mRNA sequencing (RNAseq) and gene set enrichment analysis of propranolol-treated iPSCs", "type": "cell-based, human", "settings": "50 μM", "procedure": "as §1\nThe cDNA library preparation was completed by second strand synthesis using SuperScript III, alkaline RNA hydrolysis, and PCR amplification for 10 cycles. mRNA libraries were prepared by utilizing the Illumina TruSeq Stranded mRNA LT protocol using 500 ng total RNA and NEB's Protoscript II reverse transcriptase for the first-strand cDNA synthesis according to the manufacturer's protocol. Individual RNAseq libraries were quality controlled on an Agilent TapeStation with a High Sensitivity D1000 ScreenTape. […] The libraries were sequenced on an Illumina NextSeq 500 sequencer 75-bp paired-end in mid-output mode in the Genomics Core Facility of The Rockefeller University.\nThe miRNA read annotation for sRNAseq experiments was performed as previously described^36, 37 using an slightly updated, manually curated miRNA reference based on previous work 38. […] The RNAseq data was aligned to the Human Genome Build 38 using the STAR aligner^40 (version 2.0.4j) allowing for two mismatches.\nAll data were tested for normality."}, "iPSCs [5]": {"test_system": "iPSCs", "test": "WST1 proliferation assay", "type": "cell-based, human", "settings": "50 μM, 72 hours", "description": "iPSCs were grown in 6 well plates and split 1:10 at 3-day intervals. […] WST1 proliferation assays were performed as previously described^29."}, "iPSCs [6]": {"test_system": "iPSCs", "test": "Bright field morphology of propranolol-treated iPSCs", "type": "cell-based, human", "settings": "50 μM, 72 h, compared to control"}, "mir-498(46)": {"test_system": "mir-498(46)", "settings": "previous work (ref. 7); cited from earlier work"}, "hemangioma stem cells": {"test_system": "hemangioma stem cells", "settings": "cited from earlier work"}, "iPSCs [7]": {"test_system": "iPSCs", "test": "sRNAseq analysis of miRNA cistrons in propranolol-treated iPSCs"}, "[8]": {"settings": "iPSCs, 50 μM, 72 h, vs vehicle control"}}}
{"smiles": "CC(C)NCC(O)COc1cccc2ccccc12", "note": "(centres unmarked) [Propranolol]", "values": [{"measurement": "LIN28B and GLUT1 immunostaining", "setting": "LIN28B [1]; propranolol-treated proliferative IH compared to untreated proliferative IH", "result": "markedly decreased"}, {"measurement": "LIN28B to GLUT1 immunofluorescence signal intensity, increase in proliferative IH compared to propranolol treated IH", "setting": "LIN28B [1]; untreated proliferative IH vs propranolol treated IH samples", "result": "~2", "unit": "fold"}, {"measurement": "decrease in LIN28B protein levels", "setting": "LIN28B [2]", "result": 2.3, "unit": "fold"}, {"measurement": "SERPINE1 increased expression (qRT-PCR)", "setting": "iPSCs [3]; 72 h", "result": 8.4, "unit": "fold"}, {"measurement": "TWIST1 increased expression (qRT-PCR)", "setting": "iPSCs [3]; 72 h", "result": 5, "unit": "fold"}, {"measurement": "LIN28B mRNA levels", "setting": "iPSCs [3]; 72 h, data not shown", "result": "no significant differences"}, {"measurement": "increase in let-7a expression (qRT-PCR)", "setting": "iPSCs [3]; 72 hr", "result": "> 1. 65 fold"}, {"measurement": "miR-515-5p expression (qRT-PCR)", "setting": "iPSCs [3]; 72 hr", "result": "significant reduction"}, {"measurement": "miR-517a expression (qRT-PCR)", "setting": "iPSCs [3]; 72 hr", "result": "significant reduction"}, {"measurement": "miR-518C expression (qRT-PCR)", "setting": "iPSCs [3]; 72 hr", "result": "significant reduction"}, {"measurement": "miR-519d expression (qRT-PCR)", "setting": "iPSCs [3]; 72 hr", "result": "significant reduction"}, {"measurement": "SERPINE1 increase (RNAseq)", "setting": "iPSCs [4]; 72 h", "result": 12, "unit": "fold"}, {"measurement": "TWIST1 increase (RNAseq)", "setting": "iPSCs [4]; 72 h", "result": 2.9, "unit": "fold"}, {"measurement": "gene set analysis: TGF-β signaling pathway", "setting": "iPSCs [4]; 72 h, FDR 0.06", "result": "upregulation"}, {"measurement": "gene set analysis: adipogenesis pathway", "setting": "iPSCs [4]; 72 h, FDR 0.09", "result": "upregulation"}, {"measurement": "gene set analysis: E2F targets", "setting": "iPSCs [4]; 72 h, FDR<0.25", "result": "downregulation"}, {"measurement": "gene set analysis: G2M checkpoint", "setting": "iPSCs [4]; 72 h, FDR<0.25", "result": "downregulation"}, {"measurement": "gene set analysis: mitotic spindle pathway", "setting": "iPSCs [4]; 72 h, FDR<0.25", "result": "downregulation"}, {"measurement": "gene set enrichment: genes defining EMT", "setting": "iPSCs [4]; 72 h vs control, FDR 0.00046", "result": "enrichment"}, {"measurement": "decrease in cell proliferation", "setting": "iPSCs [5]", "result": 33, "unit": "%"}, {"measurement": "EMT associated morphological changes", "setting": "iPSCs [6]", "result": "more elongated cellular shape"}, {"measurement": "levels of mir-498(46) in propranolol-treated IH tumors vs proliferative IH", "setting": "mir-498(46)", "result": "significantly lower levels"}, {"measurement": "adipogenesis in hemangioma stem cells", "setting": "hemangioma stem cells", "result": "induce adipogenesis"}, {"measurement": "downregulation of mir-498(46)", "setting": "iPSCs [7]; [8]", "result": 1.6, "unit": "fold"}, {"measurement": "increase in expression of cistron mir-98(13)", "setting": "iPSCs [7]; [8]", "result": 3.2, "unit": "fold"}, {"measurement": "Normalized frequency, cistron mir-10a(1)", "setting": "iPSCs [7]; propranolol-treated iPSCs", "result": 0.0168, "unit": "%"}, {"measurement": "Normalized frequency, cistron mir-10b(1)", "setting": "iPSCs [7]; propranolol-treated iPSCs", "result": 0.0176, "unit": "%"}, {"measurement": "Normalized frequency, cistron mir-21(1)", "setting": "iPSCs [7]; propranolol-treated iPSCs", "result": 10.5844, "unit": "%"}, {"measurement": "Normalized frequency, cistron mir-33b(1)", "setting": "iPSCs [7]; propranolol-treated iPSCs", "result": 0.002, "unit": "%"}, {"measurement": "Normalized frequency, cistron mir-98(13)", "setting": "iPSCs [7]; propranolol-treated iPSCs", "result": 0.2313, "unit": "%"}, {"measurement": "Normalized frequency, cistron mir-188(8)", "setting": "iPSCs [7]; propranolol-treated iPSCs", "result": 0.1459, "unit": "%"}, {"measurement": "Normalized frequency, cistron mir-488(1)", "setting": "iPSCs [7]; propranolol-treated iPSCs", "result": 0.0022, "unit": "%"}, {"measurement": "Normalized frequency, cistron mir-498(46)", "setting": "iPSCs [7]; propranolol-treated iPSCs", "result": 0.4075, "unit": "%"}, {"measurement": "Normalized frequency, cistron mir-1226(1)", "setting": "iPSCs [7]; propranolol-treated iPSCs", "result": 0, "unit": "%"}, {"measurement": "Normalized frequency, cistron mir-3155(1)", "setting": "iPSCs [7]; propranolol-treated iPSCs", "result": 0.0014, "unit": "%"}]}
